Common to all, as to assay: MIC, microdilution broth method (NCCLS)
What all share (format): cell-based
(Broth dilution looks for growth in wells or tubes with falling amounts of substance.)

Test [1] relates to E. coli OC2605. Conditions: A: E. coli OC2605, 35° C., 16-20 hours. Summed up: (§1)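 Two-fold serial compound dilutions in cation-adjusted Mueller-Hinton broth were inoculated at approximately 5×10^4 CFU/well from actively growing cultures, incubated at 35° C. for 16-20 hours, and growth was compared with compound-free control wells to give the MIC.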
Test [2] concerns E. faecalis ATCC29212. Conditions: C: E. faecalis ATCC29212, 35° C., 16-20 hours. Summed up: as §1
Test [3] concerns H. influenzae ATCC49247. The following applies: E: H. influenzae ATCC49247, 35° C., 16-20 hours. Summed up: as §1
For test [4], the system named is S. aureus ATCC29213. Conditions: B: S. aureus ATCC29213, 35° C., 16-20 hours. The method in brief: as §1
The test system of test [5] is S. pneumoniae ATCC49619. The following applies: D: S. pneumoniae ATCC49619, 35° C., 16-20 hours. The method in brief:
as §1

Converted amounts (≈) assume the structure as drawn. Where only a bound is given, the exact number is not on record here.

As to `CC[C@H]1OC(=O)[C@H](C)C(=O)[C@H](C)[C@@H](O[C@@H]2O[C@H](C)C[C@H](N(C)C)[C@H]2O)[C@](C)(OC(=O)NCCCc2ccccc2)C[C@@H](C)C(=O)[C@H](C)[C@H]2NC(=O)O[C@@]21C` [Compound 2], the MIC in test [1] was 16 µg/mL (≈ 21.1 µM); in test [2] it was 0.25 µg/mL (≈ 0.329 µM); in test [3], 2 µg/mL (≈ 2.63 µM); in test [4] it was 1 µg/mL (≈ 1.32 µM); in test [5], 0.06 µg/mL (≈ 0.079 µM).
On to `CC[C@H]1OC(=O)[C@H](C)C(=O)[C@H](C)[C@@H](O[C@@H]2O[C@H](C)C[C@H](N(C)C)[C@H]2O)[C@](C)(OC(=O)NCCN)C[C@@H](C)C(=O)[C@H](C)[C@H]2NC(=O)O[C@@]21C` [Compound 110], for which the MIC in test [1] is more than 16 µg/mL; in test [2] it was 8 µg/mL (≈ 11.7 µM); in test [3], 16 µg/mL (≈ 23.4 µM); in test [4], 16 µg/mL (≈ 23.4 µM); in test [5], 1 µg/mL (≈ 1.46 µM).
Turning to `CC[C@H]1OC(=O)[C@H](C)C(=O)[C@H](C)[C@@H](O[C@@H]2O[C@H](C)C[C@H](N(C)C)[C@H]2O)[C@](C)(OC(=O)NCc2ccc(-c3ccccn3)s2)C[C@@H](C)C(=O)[C@H](C)[C@H]2NC(=O)O[C@@]21C` [Compound 56], the MIC in test [1] is 8 µg/mL (≈ 9.82 µM); in test [2], 0.06 µg/mL (≈ 0.0736 µM); in test [3], 2 µg/mL (≈ 2.45 µM); in test [4], 0.25 µg/mL (≈ 0.307 µM); in test [5], “≦0.015 μg/mL”.
Turning to `CC[C@H]1OC(=O)[C@H](C)C(=O)[C@H](C)[C@@H](O[C@@H]2O[C@H](C)C[C@H](N(C)C)[C@H]2OC(C)=O)[C@](C)(OC(=O)NC/C=C/c2ccc(-c3ncccn3)cc2)C[C@@H](C)C(=O)[C@H](C)[C@H]2NC(=O)O[C@@]21C` [Compound 94], the MIC is more than 16 µg/mL in test [1]; 0.12 µg/mL (≈ 0.137 µM) in test [2]; 2 µg/mL (≈ 2.28 µM) in test [3]; 0.25 µg/mL (≈ 0.285 µM) in test [4]; 0.06 µg/mL (≈ 0.0683 µM) in test [5].
For the molecule `CC[C@H]1OC(=O)[C@H](C)C(=O)[C@H](C)[C@@H](O[C@@H]2O[C@H](C)C[C@H](N(C)C)[C@H]2O)[C@](C)(OC(=O)NCCN2C(=O)c3ccccc3C2=O)C[C@@H](C)C(=O)[C@H](C)[C@H]2NC(=O)O[C@@]21C` [Compound 109], the MIC in test [1] is more than 16 µg/mL; in test [2], 2 µg/mL (≈ 2.45 µM); in test [3], 16 µg/mL (≈ 19.6 µM); in test [4] it was 8 µg/mL (≈ 9.82 µM); in test [5] it was 0.25 µg/mL (≈ 0.307 µM).
As to `CC[C@H]1OC(=O)[C@H](C)C(=O)[C@H](C)[C@@H](O[C@@H]2O[C@H](C)C[C@H](N(C)C)[C@H]2O)[C@](C)(OC(=O)NC/C=C/C=C/c2cccc(-n3cncn3)n2)C[C@@H](C)C(=O)[C@H](C)[C@H]2NC(=O)O[C@@]21C` [Compound 50], the MIC in test [1] is 16 µg/mL (≈ 18.8 µM); in test [2] it was 0.06 µg/mL (≈ 0.0704 µM); in test [3], 2 µg/mL (≈ 2.35 µM); in test [4], 0.25 µg/mL (≈ 0.293 µM); in test [5] it was “≦0.015 μg/mL”.
Turning to `CC[C@H]1OC(=O)[C@H](C)C(=O)[C@H](C)[C@@H](O[C@@H]2O[C@H](C)C[C@H](N(C)C)[C@H]2O)[C@](C)(OC(=O)NCCNC(=O)c2cnc3ccccc3c2)C[C@@H](C)C(=O)[C@H](C)[C@H]2NC(=O)O[C@@]21C` [Compound 113], the MIC was more than 16 µg/mL in test [1]; 1 µg/mL (≈ 1.19 µM) in test [2]; 8 µg/mL (≈ 9.52 µM) in test [3]; 4 µg/mL (≈ 4.76 µM) in test [4]; 0.06 µg/mL (≈ 0.0714 µM) in test [5].
Take `CC[C@H]1OC(=O)[C@H](C)C(=O)[C@H](C)[C@@H](O[C@@H]2O[C@H](C)C[C@H](N(C)C)[C@H]2O)[C@](C)(OC(=O)NCc2ccc(-c3nccc(OC)n3)cc2)C[C@@H](C)C(=O)[C@H](C)[C@H]2NC(=O)O[C@@]21C` [Compound 70]: the MIC worked out at 16 µg/mL (≈ 19 µM) in test [1]; 0.12 µg/mL (≈ 0.143 µM) in test [2]; 4 µg/mL (≈ 4.76 µM) in test [3]; 0.25 µg/mL (≈ 0.298 µM) in test [4]; 0.03 µg/mL (≈ 0.0357 µM) in test [5].
On to `CC[C@H]1OC(=O)[C@H](C)C(=O)[C@H](C)[C@@H](O[C@@H]2O[C@H](C)C[C@H](N(C)C)[C@H]2O)[C@](C)(OC(=O)NCc2ccc(-n3cncn3)cc2)C[C@@H](C)C(=O)[C@H](C)[C@H]2NC(=O)O[C@@]21C` [Compound 10], for which the MIC turned out to be 16 µg/mL (≈ 20 µM) in test [1]; 0.25 µg/mL (≈ 0.313 µM) in test [2]; 4 µg/mL (≈ 5.01 µM) in test [3]; 1 µg/mL (≈ 1.25 µM) in test [4]; 0.03 µg/mL (≈ 0.0375 µM) in test [5].
On to `CC[C@H]1OC(=O)[C@H](C)C(=O)[C@H](C)[C@@H](O[C@@H]2O[C@H](C)C[C@H](N(C)C)[C@H]2O)[C@](C)(OC(=O)NC/C=C/c2ccc(-n3cc(C)cn3)cc2)C[C@@H](C)C(=O)[C@H](C)[C@H]2NC(=O)O[C@@]21C` [Compound 67], for which the MIC in test [1] was more than 16 µg/mL; in test [2] it was 0.25 µg/mL (≈ 0.298 µM); in test [3], 4 µg/mL (≈ 4.77 µM); in test [4], 0.25 µg/mL (≈ 0.298 µM); in test [5], 0.06 µg/mL (≈ 0.0716 µM).
For the molecule `CC[C@H]1OC(=O)[C@H](C)C(=O)[C@H](C)[C@@H](O[C@@H]2O[C@H](C)C[C@H](N(C)C)[C@H]2O)[C@](C)(OC(=O)NCc2cnn(-c3ccccc3)c2)C[C@@H](C)C(=O)[C@H](C)[C@H]2NC(=O)O[C@@]21C` [Compound 61], the MIC in test [1] was 16 µg/mL (≈ 20.1 µM); in test [2] it was 0.06 µg/mL (≈ 0.0752 µM); in test [3], 2 µg/mL (≈ 2.51 µM); in test [4], 0.5 µg/mL (≈ 0.627 µM); in test [5], 0.03 µg/mL (≈ 0.0376 µM).
As to `CC[C@H]1OC(=O)[C@H](C)C(=O)[C@H](C)[C@@H](O[C@@H]2O[C@H](C)C[C@H](N(C)C)[C@H]2O)[C@](C)(OC(=O)NC/C=C/c2cccc(-n3cncn3)n2)C[C@@H](C)C(=O)[C@H](C)[C@H]2NC(=O)O[C@@]21C` [Compound 51], the MIC in test [1] is more than 16 µg/mL; in test [2] it was 0.12 µg/mL (≈ 0.145 µM); in test [3], 8 µg/mL (≈ 9.69 µM); in test [4], 0.5 µg/mL (≈ 0.605 µM); in test [5] it was 0.06 µg/mL (≈ 0.0726 µM).
On to `CC[C@H]1OC(=O)[C@H](C)C(=O)[C@H](C)[C@@H](O[C@@H]2O[C@H](C)C[C@H](N(C)C)[C@H]2O)[C@](C)(OC(=O)NCCCc2ccnc3ccccc23)C[C@@H](C)C(=O)[C@H](C)[C@H]2NC(=O)O[C@@]21C` [Compound 25], for which the MIC in test [1] was 8 µg/mL (≈ 9.86 µM); in test [2], 0.06 µg/mL (≈ 0.074 µM); in test [3], 4 µg/mL (≈ 4.93 µM); in test [4] it was 0.25 µg/mL (≈ 0.308 µM); in test [5] it was 0.03 µg/mL (≈ 0.037 µM).
As to `CC[C@H]1OC(=O)[C@H](C)C(=O)[C@H](C)[C@@H](O[C@@H]2O[C@H](C)C[C@H](N(C)C)[C@H]2O)[C@](C)(OC(=O)N(C)C/C=C/c2ccc(-c3ncccn3)cc2)C[C@@H](C)C(=O)[C@H](C)[C@H]2NC(=O)O[C@@]21C` [Compound 85], the MIC in test [1] is more than 16 µg/mL; in test [2], 0.25 µg/mL (≈ 0.294 µM); in test [3] it was more than 16 µg/mL; in test [4], 1 µg/mL (≈ 1.18 µM); in test [5], 0.12 µg/mL (≈ 0.141 µM).
Consider `CCC1OC(=O)C(C)(F)C(=O)C(C)C(OC2OC(C)CC(N(C)C)C2O)C(C)(OC(=O)NCC=Cc2ccnc(Br)c2)CC(C)C(=NO)C(C)C2NC(=O)OC12C` (centres unmarked) [Compound 130], for which the MIC was 8 µg/mL (≈ 9.19 µM) in test [1]; 0.12 µg/mL (≈ 0.138 µM) in test [2]; 0.5 µg/mL (≈ 0.574 µM) in test [3]; 0.25 µg/mL (≈ 0.287 µM) in test [4]; “≦0.015 μg/mL” in test [5].
With `CC[C@H]1OC(=O)[C@H](C)C(=O)[C@H](C)[C@@H](O[C@@H]2O[C@H](C)C[C@H](N(C)C)[C@H]2O)[C@](C)(OC(=O)NCC#Cc2ccc(-n3cccn3)cc2)C[C@@H](C)C(=O)[C@H](C)[C@H]2NC(=O)O[C@@]21C` [Compound 82], the MIC in test [1] was more than 16 µg/mL; in test [2], 0.06 µg/mL (≈ 0.073 µM); in test [3] it was 4 µg/mL (≈ 4.87 µM); in test [4], 0.25 µg/mL (≈ 0.304 µM); in test [5] it was 0.03 µg/mL (≈ 0.0365 µM).
As for `CC[C@H]1OC(=O)[C@H](C)C(=O)[C@H](C)[C@@H](O[C@@H]2O[C@H](C)C[C@H](N(C)C)[C@H]2O)[C@](C)(OC(=O)NCCCCc2ccccc2)C[C@@H](C)C(=O)[C@H](C)[C@H]2NC(=O)O[C@@]21C` [Compound 9], the MIC in test [1] is more than 16 µg/mL; in test [2] it was 0.25 µg/mL (≈ 0.323 µM); in test [3] it was 16 µg/mL (≈ 20.7 µM); in test [4], 1 µg/mL (≈ 1.29 µM); in test [5], 0.03 µg/mL (≈ 0.0388 µM).
Consider `CC[C@H]1OC(=O)[C@H](C)C(=O)[C@H](C)[C@@H](O[C@@H]2O[C@H](C)C[C@H](N(C)C)[C@H]2O)[C@](C)(OC(=O)NCCNCc2ccc(-c3ncccn3)cc2)C[C@@H](C)C(=O)[C@H](C)[C@H]2NC(=O)O[C@@]21C` [Compound 115], for which the MIC in test [1] was more than 16 µg/mL; in test [2] it was 0.5 µg/mL (≈ 0.586 µM); in test [3], 16 µg/mL (≈ 18.8 µM); in test [4], 2 µg/mL (≈ 2.34 µM); in test [5] it was 0.06 µg/mL (≈ 0.0703 µM).
As to `CC[C@H]1OC(=O)[C@H](C)C(=O)[C@H](C)[C@@H](O[C@@H]2O[C@H](C)C[C@H](N(C)C)[C@H]2O)[C@](C)(OC(=O)NCCNC(=O)c2cccnc2)C[C@@H](C)C(=O)[C@H](C)[C@H]2NC(=O)O[C@@]21C` [Compound 112], the MIC in test [1] is more than 16 µg/mL; in test [2], 2 µg/mL (≈ 2.53 µM); in test [3], 16 µg/mL (≈ 20.3 µM); in test [4], 16 µg/mL (≈ 20.3 µM); in test [5] it was 0.5 µg/mL (≈ 0.633 µM).
